Columns and labels:
HCT-116 [1] = assay: Induction of cell cycle arrest in human HCT-116 cells assessed as accumulation of cells at G2/M phase at 100 nM incubated for 24 hrs by RNase A/propidium iodide staining based flow cytometric analysis (reference value: 4.05 %); format: functional
HCT-116 [2] = assay: Induction of apoptosis in human HCT-116 cells assessed as necrotic cells at 10 nM incubated for 48 hrs by Annexin V-FITC/PI staining based flow cytometry analysis (reference value: 1.31 %); format: functional
HCT-116 [3] = assay: Induction of apoptosis in human HCT-116 cells assessed as necrotic cells at 100 nM incubated for 48 hrs by Annexin V-FITC/PI staining based flow cytometry analysis (reference value: 1.31 %); format: functional
HCT-116 [4] = assay: Induction of cell cycle arrest in human HCT-116 cells assessed as accumulation of cells at G1 phase at 10 nM incubated for 24 hrs by RNase A/propidium iodide staining based flow cytometric analysis (reference value: 93.11 %); format: functional
HCT-116 [5] = assay: Induction of apoptosis in human HCT-116 cells assessed as viable cells at 10 nM incubated for 48 hrs by Annexin V-FITC/PI staining based flow cytometry analysis (reference value: 94.31 %); format: functional; details: read-out: Activity
HCT-116 [6] = assay: Induction of apoptosis in human HCT-116 cells assessed as viable cells at 100 nM incubated for 48 hrs by Annexin V-FITC/PI staining based flow cytometry analysis (reference value: 94.31 %); format: functional; details: read-out: Activity
HCT-116 [7] = assay: Antitumor activity against human HCT-116 cells xenografted in female BALB/c nu/nu mouse assessed as reduction in tumor weight at 15 mg/kg, ip measured every 2 days for 14 days relative to control; format: functional; set-up: scale not given: the % may be the effect or the level left; details: time 14 day
MDA-MB-231 = assay: Antiproliferative activity against human MDA-MB-231 cells assessed as inhibition of cell proliferation measured after 72 hrs by CCK8 assay; format: functional, cell-based; details: MDA-MB-231, 72 h
[8] = biological target: Protein cereblon/Kinesin-like protein KIF11 (Homo sapiens, UniProt P52732+Q96SW2); assay: PROTAC activity at CRBN/KSP in human HCT-116 cells assessed as induction of KSP degradation by measuring maximal efficacy incubated for 48 hrs by Western blot analysis relative to control; format: cell-based
Sequence of Protein cereblon/Kinesin-like protein KIF11 (P52732 whole entry, looked up): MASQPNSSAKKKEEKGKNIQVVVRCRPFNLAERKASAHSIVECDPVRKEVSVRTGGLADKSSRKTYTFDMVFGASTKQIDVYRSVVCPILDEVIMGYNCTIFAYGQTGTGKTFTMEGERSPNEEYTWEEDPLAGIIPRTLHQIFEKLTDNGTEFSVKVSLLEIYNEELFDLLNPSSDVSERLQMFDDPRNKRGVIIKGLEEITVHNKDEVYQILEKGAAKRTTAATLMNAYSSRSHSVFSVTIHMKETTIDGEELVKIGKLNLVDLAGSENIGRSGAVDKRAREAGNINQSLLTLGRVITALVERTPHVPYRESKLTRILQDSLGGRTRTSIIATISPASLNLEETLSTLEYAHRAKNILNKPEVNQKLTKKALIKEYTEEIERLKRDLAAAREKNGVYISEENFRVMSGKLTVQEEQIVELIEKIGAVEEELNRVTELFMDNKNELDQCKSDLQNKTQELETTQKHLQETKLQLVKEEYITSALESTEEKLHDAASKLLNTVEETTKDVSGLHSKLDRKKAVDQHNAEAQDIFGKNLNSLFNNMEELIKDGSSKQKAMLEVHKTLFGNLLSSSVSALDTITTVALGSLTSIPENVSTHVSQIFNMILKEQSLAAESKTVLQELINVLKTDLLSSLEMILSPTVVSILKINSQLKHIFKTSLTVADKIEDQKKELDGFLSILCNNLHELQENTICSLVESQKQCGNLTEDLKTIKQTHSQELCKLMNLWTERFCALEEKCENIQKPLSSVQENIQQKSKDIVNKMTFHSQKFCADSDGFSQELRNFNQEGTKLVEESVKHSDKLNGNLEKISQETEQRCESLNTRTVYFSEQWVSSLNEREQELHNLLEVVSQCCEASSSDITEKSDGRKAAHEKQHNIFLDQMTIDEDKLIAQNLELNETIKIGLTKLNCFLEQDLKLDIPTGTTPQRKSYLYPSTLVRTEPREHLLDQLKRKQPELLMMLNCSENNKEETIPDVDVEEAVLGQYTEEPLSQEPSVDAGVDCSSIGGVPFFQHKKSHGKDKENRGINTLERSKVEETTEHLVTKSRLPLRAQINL
Sequence of Protein cereblon/Kinesin-like protein KIF11 (Q96SW2 whole entry, looked up): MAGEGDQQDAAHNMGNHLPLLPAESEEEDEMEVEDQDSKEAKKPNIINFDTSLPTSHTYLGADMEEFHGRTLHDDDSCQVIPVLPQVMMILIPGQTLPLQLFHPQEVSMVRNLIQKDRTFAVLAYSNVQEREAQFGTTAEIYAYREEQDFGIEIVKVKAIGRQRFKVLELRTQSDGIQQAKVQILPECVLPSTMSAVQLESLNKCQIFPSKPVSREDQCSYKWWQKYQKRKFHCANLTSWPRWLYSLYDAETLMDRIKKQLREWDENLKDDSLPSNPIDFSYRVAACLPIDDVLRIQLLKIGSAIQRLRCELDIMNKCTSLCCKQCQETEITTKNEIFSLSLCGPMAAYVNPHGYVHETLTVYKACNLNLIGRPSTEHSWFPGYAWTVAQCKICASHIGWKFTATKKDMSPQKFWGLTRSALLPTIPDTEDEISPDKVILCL

IC50 (MDA-MB-231): 35.4 nM
Emax [8]: 90%
SMILES: COc1ccc(C2(SC[C@H](N)C(=O)NCCCCCCCCNC(=O)COc3cccc4c3C(=O)N(C3CCC(=O)NC3=O)C4=O)c3ccccc3C=Cc3ccccc32)cc1 (some centres undefined)
Activity (HCT-116 [1]): 75.05%
Activity (HCT-116 [2]): 13.67%
Activity (HCT-116 [3]): 14.98%
Activity (HCT-116 [4]): 75.34%
viability at 0.01 µM (HCT-116 [5]): 57.9%
viability at 0.1 µM (HCT-116 [6]): 29.1%
Activity (HCT-116 [7]): 99%
